According to US20040018501A1, “Methods and systems for analyzing complex biological systems” (priority 2001, published 2004):
Entries after “also recorded” stand apart in the source; their conditions may differ.

Assays:
[1] = system: Saccharomyces cerevisiae wild type strain BY4743; assay: AF1 yeast gene expression analysis (microarray); assay type: cell-based; settings: p < 0.05, KEGG mapping
Description: Saccharomyces cerevisiae wild type strain BY4743 was purchased from American Type Culture Center (ATCC, Manassas, Va.). The yeast strain was grown in YPD or SD media. […] The cultures started from fresh single colonies were grown in 1.0 ml YPD overnight at 30° C. […] The OD600 was adjusted to 1.0 with YPD media, then 2.0 ml of each was inoculated into three 250 ml flasks, each containing 50 ml of SD media. […] The cells were kept growing for another two hours, then collected by centrifugation at 4000 rpm for 5 minutes at 4° C. Pellets were washed once with ice-cold water, then were lyophilized overnight at 4° C. […] RNA quality was determined using the Bioanalyzer 2100 and the RNA 6000 assay (Agilent Technologies, Palo Alto, Calif.) according to manufacturer's instructions. RNA concentrations were determined spectrophotometrically by measuring the absorption at 260 nm in an Ultrospec 2000 (Pharmacia Biotech, Piscataway, N.J.). […] Labeled cRNAs were evaluated using the RNA 6000 assay on the Agilent Bioanalyzer 2100. Labeled cRNA concentrations were determined spectrophotometrically by measuring the absorption at 260 nm in an Ultrospec 2000 (Pharmacia Biotech, Piscataway, N.J.). […] Each feature was determined from an array's associated pattern file and a detection algorithm. […] Data was evaluated after combining results from fluor reversal replicate hybridizations. […]

[2] = system: Saccharomyces cerevisiae wild type strain BY4743; assay: AF1 combined gene expression and metabolite mapping to KEGG reactions and pathways; assay type: cell-based
From the text: In AF1, two different technologies were utilized: gene expression analysis (for examination of mRNA expression) and metabolite analysis. […] As noted previously, existing metabolic databases may be helpful in practicing the methods and systems of the present invention, but many databases include limitations that make their use in data analysis and pathway mapping less than straightforward. […] This caveat to KEGG makes it difficult to pinpoint the correct pathway when attempting to link a gene to a specific pathway. […] The pathway score indicates how meaningful the mapping is, or how likely it is to be correctly indicative of the pathway involved in the perturbation under examination. The method provides a pathway score based on perturbation levels of genes and/or compounds and the information content of each gene and/or compound in the pathway, i.e., a pathway score indicates the extent to which other pathways are mapped to a gene/compound. […] Degree of perturbation can be calculated, for example, based on a number of standard deviations from a norm, and included in an equation such as the one shown above, so that not only the number of pathways is taken into account, but also accounts for the amount of gene transcript or compound present as compared to a control. […] Of the 676 compounds under consideration, 77 were detected in the AF1 samples. […]

[3] = system: Saccharomyces cerevisiae wild type strain BY4743; assay: AF1 yeast metabolite analysis by GC-MS and LC-MS; assay type: cell-based; settings: for # Compounds perturbed: 2×MIC, two hours
[4] = system: Magnaporthe grisea; assay type: cell-based
[5] = system: Arabidopsis thaliana; assay: MOA1 biochemical (metabolite) profiling by LC-MS and GC-MS
[6] = system: Arabidopsis thaliana plants; assay: SOA1 phenotypic analysis of herbicide-treated plants; assay type: in vivo
[7] = system: Arabidopsis thaliana; assay: MOA1 gene expression profiling (22,000-gene microarray)
From the text: Lyophilized tissues were first re-hydrated using [sequence] (Ambion, Inc., Austin, Tex.).

C[C@@H]1[C@H](O)[C@@H](C)/C=C/C=C/C=C/C=C/C=C/C=C/C=C/[C@H](O[C@@H]2O[C@H](C)[C@@H](O)[C@H](N)[C@@H]2O)C[C@@H]2O[C@](O)(C[C@@H](O)C[C@@H](O)[C@H](O)CC[C@@H](O)C[C@@H](O)CC(=O)O[C@H]1C)C[C@H](O)[C@H]2C(=O)O [Amphoteracin B]
# Pathways Affected by at Least One Gene [1]: 97
Number of Reactions Having an Enzyme and at Least One Compound Perturbed [2]: 54
# Compounds perturbed ([3]; P < 0.05): 16
# Compounds perturbed ([3]; P < 0.1): 21
Fold Change of campesterol ([3]; platform GC): 0
Fold Change of desmosterol ([3]; platform GC): 0
Fold Change of octadecanoic acid ([3]; platform GC): 0.21
Fold Change of abscisic acid ([3]; platform LC): 0
Fold Change of adenosine ([3]; platform LC): 0
Fold Change of riboflavin ([3]; platform LC): 0
Fold Change of 4-methylcatechol ([3]; platform nLC): 0
Fold Change of 5hydroxyLtryptophan ([3]; platform nLC): 0
Fold Change of 6-benzylaminopurine ([3]; platform nLC): 0
Fold Change of NacetylDglucosamine ([3]; platform nLC): 0
Fold Change of NacetylLornithine ([3]; platform nLC): 0
Fold Change of abscisic acid ([3]; platform nLC): 0
Fold Change of adenine ([3]; platform nLC): 0
Fold Change of adenosine ([3]; platform nLC): 0
Fold Change of anthranilic acid ([3]; platform nLC): 0
Fold Change of argininosuccinate ([3]; platform nLC): 0
Fold Change of benzoic acid ([3]; platform nLC): 0
Fold Change of catechol ([3]; platform nLC): 0
Fold Change of cinnamic acid ([3]; platform nLC): 0
Fold Change of citricanoic/itaconi ([3]; platform nLC): 0
Fold Change of coumaric acid ([3]; platform nLC): 0
Fold Change of cytosine ([3]; platform nLC): 0
Fold Change of diaminopimelic acid ([3]; platform nLC): 0
Fold Change of dihydrofolic acid ([3]; platform nLC): 0
Fold Change of estrone ([3]; platform nLC): 0
Fold Change of farnesol ([3]; platform nLC): 0
Fold Change of folic acid ([3]; platform nLC): 0
Fold Change of gibberellic ([3]; platform nLC): 0
Fold Change of glutamine/lysine ([3]; platform nLC): 0.07919
Fold Change of guanine ([3]; platform nLC): 0
Fold Change of histidine ([3]; platform nLC): 0
Fold Change of homogentisic/uric ([3]; platform nLC): 0
Fold Change of hydrocortisone ([3]; platform nLC): 0
Fold Change of indole3pyruvic acid ([3]; platform nLC): 0
Fold Change of jasmonic acid ([3]; platform nLC): 0
Fold Change of kinetin ([3]; platform nLC): 0
Fold Change of luteolin ([3]; platform nLC): 0
Fold Change of malonic acid ([3]; platform nLC): 0
Fold Change of methionine ([3]; platform nLC): 0
Fold Change of phenylpyruvic acid ([3]; platform nLC): 0
Fold Change of phosphoenolpyruvate ([3]; platform nLC): 0
Fold Change of pinitol ([3]; platform nLC): 0
Fold Change of porphobilinogen ([3]; platform nLC): 0
Fold Change of retinoic acid ([3]; platform nLC): 0
Fold Change of salicylic/HObenzoic ([3]; platform nLC): 0
Fold Change of shikimic acid ([3]; platform nLC): 0
Fold Change of sinapinic acid ([3]; platform nLC): 0
Fold Change of thymine ([3]; platform nLC): 0
Fold Change of urocanic acid ([3]; platform nLC): 0
Fold Change of xanthosineDiH2O ([3]; platform nLC): 0
Fold Change of zeatin ([3]; platform nLC): 0
Fold Change of 4-aminobenzoic acid ([3]; platform pLC): 0
Fold Change of 4-methylcatechol ([3]; platform pLC): 0
Fold Change of 5hydroxyLtryptophan ([3]; platform pLC): 0
Fold Change of 6benzylaminopurine ([3]; platform pLC): 0
Fold Change of NacetylDglucosamine ([3]; platform pLC): 0
Fold Change of NacetylLglutamate ([3]; platform pLC): 0
Fold Change of allantoic acid ([3]; platform pLC): 0
Fold Change of anthranilic acid ([3]; platform pLC): 0
Fold Change of argininosuccinate ([3]; platform pLC): 0
Fold Change of biotin ([3]; platform pLC): 0
Fold Change of caffeine ([3]; platform pLC): 0
Fold Change of citric acid TME ([3]; platform pLC): 0
Fold Change of cytidine ([3]; platform pLC): 0
Fold Change of cytosine ([3]; platform pLC): 0
Fold Change of diaminopimelic acid ([3]; platform pLC): 0
Fold Change of dihydrofolic acid ([3]; platform pLC): 0
Fold Change of dipicolinic acid ([3]; platform pLC): 0
Fold Change of folic acid ([3]; platform pLC): 0
Fold Change of glucosamine ([3]; platform pLC): 0
Fold Change of glucosamine6PO4 ([3]; platform pLC): 0
Fold Change of histidine ([3]; platform pLC): 0
Fold Change of hydrocortisone ([3]; platform pLC): 0
Fold Change of itaconic acid dimes ([3]; platform pLC): 0
Fold Change of kinetin ([3]; platform pLC): 0
Fold Change of luteolin ([3]; platform pLC): 0
Fold Change of niacinamide ([3]; platform pLC): 0
Fold Change of nopaline ([3]; platform pLC): 0
Fold Change of phosphoenolpyruvate ([3]; platform pLC): 0
Fold Change of progesterone ([3]; platform pLC): 0
Fold Change of sugar-phosphate ([3]; platform pLC): 0
Fold Change of thiamine ([3]; platform pLC): 0
Fold Change of thymine ([3]; platform pLC): 0
Fold Change of tryptophan ([3]; platform pLC): 0
Fold Change of urocanic acid ([3]; platform pLC): 0
Fold Change of xanthosine(diH2O) ([3]; platform pLC): 0
Fold Change of zeatin ([3]; platform pLC): 0

O=C(O)CNCP(=O)(O)O [Glyphosate]
growth inhibition with aromatic amino acids included in the media ([4]; 1.0 mg/ml): remediated
growth of M. grisea (Tier 4) ([4]; ammonium or glutamine as nitrogen source): Little growth defect
Number of Metabolites Changed: Total # ([5]; 20 min, p < 0.05): 4
tyrosine (downstream of SOA) relative to the control ([5]; after one hour): decreased
characteristic symptoms (phenotype) ([6]; herbicide-treated plants): anthocyanin accumulation in the older leaves accompanied by chlorosis of the newly emerging leaves
tMic Dev. ([6]; numeric value standardized to mock treated): 2
Symptom Class ([6]; three-week-old plants, foliar spray): 4

CS(=O)(=O)c1cc(C(F)(F)F)ccc1C(=O)c1cnoc1C1CC1 [Isoxaflutole]
Alpha-tocopherol levels relative to the control ([5]; early time points): not significantly changed
tyrosine and phenylalanine relative to the control ([5]; early time points (up to 1 hour)): up-regulated; also recorded: began to accumulate
alterations in the expression of genes involved in the homogentisate biosynthetic pathway ([7]; 1 hr): not observed
No. of Lethal Genes Altered ([7]; regulated genes compared to internal list of essential genes): 15
